Data reported in patent publication US8198323B2, “Curcumin analogues and uses thereof” (The University of North Carolina at Chapel Hill, priority 2004, dated 2012).
Where a chain is given by its changes, count along the chain named. Entries after “also recorded” stand apart in the source; their conditions may differ. Blank lines part the entries; values can stand above or below the molecule they belong to.

Key:
Type in all cases: cell-based
[1] = biological target: T1, mutant AR in LNCaP cells (Homo sapiens, UniProt P10275, T878A); assay: LNCaP AR transactivation assay / LNCaP cell growth assay (Table 2); conditions: 1 nM DHT, symbols 0, +, ++ not defined
T1 construct: LNCaP cells, which express a clinically relevant mutant AR; endogenous in cells; host or cells: LNCaP
T1 sequence (P10275 1-920 T878A): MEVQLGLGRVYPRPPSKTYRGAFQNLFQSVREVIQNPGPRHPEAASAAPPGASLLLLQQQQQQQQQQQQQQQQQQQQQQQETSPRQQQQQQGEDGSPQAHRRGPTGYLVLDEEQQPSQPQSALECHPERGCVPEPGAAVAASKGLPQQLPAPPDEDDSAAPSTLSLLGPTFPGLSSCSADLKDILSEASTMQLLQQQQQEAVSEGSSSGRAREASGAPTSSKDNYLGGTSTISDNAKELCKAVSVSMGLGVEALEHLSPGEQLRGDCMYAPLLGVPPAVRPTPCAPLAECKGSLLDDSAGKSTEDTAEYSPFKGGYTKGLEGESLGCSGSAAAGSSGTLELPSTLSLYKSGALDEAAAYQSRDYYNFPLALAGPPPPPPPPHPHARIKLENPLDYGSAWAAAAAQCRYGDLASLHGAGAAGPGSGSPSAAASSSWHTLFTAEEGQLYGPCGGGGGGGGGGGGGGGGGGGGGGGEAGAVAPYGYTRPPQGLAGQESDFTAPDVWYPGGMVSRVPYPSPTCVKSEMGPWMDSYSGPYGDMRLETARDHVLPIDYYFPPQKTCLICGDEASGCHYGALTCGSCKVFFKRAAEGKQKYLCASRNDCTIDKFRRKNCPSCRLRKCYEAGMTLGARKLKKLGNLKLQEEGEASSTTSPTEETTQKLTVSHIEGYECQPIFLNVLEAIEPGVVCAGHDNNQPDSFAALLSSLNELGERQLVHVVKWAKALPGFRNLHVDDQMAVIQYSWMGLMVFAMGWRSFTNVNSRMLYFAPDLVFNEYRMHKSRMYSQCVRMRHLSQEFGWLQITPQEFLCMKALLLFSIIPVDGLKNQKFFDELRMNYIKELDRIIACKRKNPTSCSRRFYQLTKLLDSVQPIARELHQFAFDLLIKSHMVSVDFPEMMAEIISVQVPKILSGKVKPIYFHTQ
Method: (§1) Cell culture and transfection—Human prostate cancer LNCaP and PC-3 cells were maintained in RPMI medium and Dulbecco's minimum essential medium (DMEM), respectively. Both media were strengthened with penicillin (25 units/mL), streptomycin (25 μg/mL), and 10% fetal calf serum. Androgen receptor transactivation assay, an androgen-dependent reporter gene transcription test, was employed as the primary screening for potential antiandrogen identification. This assay was first performed in LNCaP cells, which express a clinically relevant mutant AR. Once potential compounds were indicated by LNCaP AR transactivation assay, they were re-examined for their potential activity against wild type AR. Wild type AR transactivation assay was performed in PC-3 host cells, which lack an endogenous, functional AR.
(§2) Our previously described conditions for cell transfection were followed (Ohtsu et al, J Medicinal Chem 45: 5037-5042 (2002); Ohtsu et al., Bioorganic & Medicinal Chemistry 11:5083-5090 (2003)). In brief, cells were plated in 24- or 48-well tissue culture dishes twenty-four (PC-3 cells) or forty-eight (LNCaP cells) hours prior to transfection. Subsequently, LNCaP cells were transfected with a reporter gene, MMTV-luciferase, which contains MMTV-LTR promoter and androgen receptor binding element, and PRL-SV40, which served as an internal control for transfection efficiency. PC-3 cells were transfected with a wild type AR expression plasmid, pSG5AR, in addition to the above-mentioned MMTV-luciferase reporter gene and PRL-SV40 internal control. SuperFect (Qiagen, Chatsworth, Calif.) was employed as the transfection reagent following manufacturer's recommendations. At the end of a five-hour transfection, the medium was changed to DMEM or RPMI supplemented with 10% charcoal dextran-stripped, androgen-depleted serum. Twenty-four hours later, the cells were treated with 1 nM of DHT and/or test compounds at the designated concentration for another twenty-four hours. The cells were harvested for luciferase activity assay using Dual Luciferase Assay System (Promega, Madison, Wis.). The derived data were expressed as relative luciferase activity normalized to the internal luciferase control. DHT incubation induced a marked expression of reporter gene.
LNCaP cell growth assay thus was used as an alternative to confirm potential antiandrogens identified by the above-mentioned AR transactivation assay. An MTT analysis, relying upon the conversion of a colorless substrate to reduced tetrazolium by the mitochondrial dehydrogenase, was used. The experimental conditions were detailed elsewhere (Ohtsu et al., Bioorganic & Medicinal Chemistry 11:5083-5090 (2003)). Briefly, cells were plated in 96-well tissue culture plates and then incubated for 5 consecutive days in the presence of 1 nM of DHT and/or test compounds in 10% charcoal dextran-stripped serum-containing RPMI. At the end of incubation, the cells were given MTT (5 mg/ml in PBS) for three hours at 37° C. The resultant precipitate was dissolved in a lysis buffer and then quantitated at a wavelength of 595 nm using a microplate reader. To ensure the accuracy of data derived from the MTT analysis, cell count was performed using duplicate samples.

[2] = biological target: T2, wild type AR (Homo sapiens, UniProt P10275); assay: AR transactivation assay (MMTV-luciferase), DU-145 cells transfected with wild-type AR and ARA70; design: expressed in transfected cells; host or cells: DU-145; conditions: FIG. 3C; for reduction (antiandrogen activity): DU-145 cells transfected with wild-type AR and ARA70; for antiandrogen activity (in words): DU-145 cells, wild-type AR and ARA70
T2 sequence (P10275 1-920): T1 sequence (P10275 1-920 T878A) with A878T
Method: (§3) Cell Culture and Transfections. Human prostate cancer DU145 and PC-3 cells were maintained in Dulbecco's minimum essential medium (DMEM) containing penicillin (25 units/mL), streptomycin (25 μg/mL), and 10% fetal calf serum (FCS). For AR transactivation assay, PC-3 cells were transfected with an AR expression plasmid and reporter gene. Because of a low content of endogenous AR coactivators, DU-145 cells were transfected with expression plasmids for AR and ARA70, and reporter gene.
(§4) Transfections were performed using the SuperFect kit according to manufacturer's procedures (Qiagen, Chatsworth, Calif.). Briefly, 1×10^5 cells were plated on 35-mm dishes 24 h before transfection, and then a reporter plasmid, MMTV-Luciferase, which contains MMTV-LTR promoter and AR-binding element, was co-transfected with an AR expression plasmid (wild type or mutant), or pSG5ARA70. PRL-TK was used as an internal control for transfection efficiency. The total amount of DNA was adjusted to […] with pSG5 in all transcriptional activation assays. After a 2 h transfection, the medium was changed to DMEM-10% charcoal stripped serum medium, and 14-16 h later, the cells were treated with DHT, antiandrogen, or test compounds. After another 14-16 h, the cells were harvested and tested for luciferase activity in luciferase assays (Promega, Dual Luciferase Assay System, Madison, Wis.). Data were expressed in relative luciferase activity as compared to an internal luciferase positive control.

[3] = biological target: T2, wild type AR; assay: Wild type AR transactivation assay in PC-3 host cells (Table 2); design: expressed in transfected cells; host or cells: PC-3; conditions: PC-3 cells transfected with wild type AR, 1 nM DHT; symbols 0, +, ++ not defined
Method: as §1, §2

[4] = biological target: T3, mutant LNCaP AR (Homo sapiens, UniProt P10275, T878A); assay: AR transactivation assay (MMTV-luciferase), DU-145 cells transfected with mutant LNCaP AR and ARA70; conditions: FIG. 3B
T3 construct: expressed in transfected cells; host or cells: DU-145
T3 sequence (P10275 1-920 T878A): T1 sequence (P10275 1-920 T878A)
Method: Cell Culture and Transfections. Human prostate cancer DU145 and PC-3 cells were maintained in Dulbecco's minimum essential medium (DMEM) containing penicillin (25 units/mL), streptomycin (25 μg/mL), and 10% fetal calf serum (FCS). For AR transactivation assay, PC-3 cells were transfected with an AR expression plasmid and reporter gene. Because of a low content of endogenous AR coactivators, DU-145 cells were transfected with expression plasmids for AR and ARA70, and reporter gene. The conditions were followed as previously described in Miyamoto et al., Proc. Natl. Acad. Sci. USA, 95, 7379-7384 (1998), with minor modifications.
as §4

[5] = biological target: T2, wild type AR; assay: AR transactivation assay (MMTV-luciferase), PC-3 cells transfected with wild-type AR; design: expressed in transfected cells; host or cells: PC-3; conditions: PC-3 cell assay system; FIG. 3A
Method: as §3
as §4, with “Data were expressed in relative luciferase activity as compared to an internal luciferase positive control.” left out

anti-AR activity, LNCaP [1]: 0
Compound: COc1ccc(/C=C/C(=O)/C=C(O)/C=C/c2ccc(OC)c(O)c2)cc1O [LL-27B]

reduction (antiandrogen activity) [2]: 53.8%
Compound: CCOC(=O)CCC(C(=O)C=Cc1ccc(O)c(OC)c1)C(=O)C=Cc1ccc(O)c(OC)c1 (centres unmarked) [Compound 22]
antiandrogen activity (in words) [2]: comparable or more potent antiandrogen activity than HF

Compound: COc1cc(/C=C/C(O)=C/C(=O)/C=C/c2ccc(O)cc2)ccc1O [LL-18]
anti-AR activity, LNCaP [1]: 0

anti-AR activity, LNCaP [1]: 0
Compound: COc1ccc(/C=C/C(=O)/C=C(O)/C=C/c2ccc(OC)c(OC)c2OC)c(OC)c1OC [LL-32B]

anti-AR activity, wrAR/PC3 [3]: 0
Compound: O=C(/C=C(O)/C=C/c1ccc(O)o1)/C=C/c1ccc(O)o1 [LL-7]

anti-AR activity, wrAR/PC3 [3]: 0
Compound: COc1ccc(/C=C/C(=O)C(C)(F)C(=O)/C=C/c2ccc(OC)c(OC)c2)cc1OC [LL-62]

reduction (antiandrogen activity) [2]: 54%
Compound: COC(=O)COc1ccc(C=CC(=O)CC(=O)C=Cc2ccc(OCC(=O)OC)c(OC)c2)cc1OC [Compound 20]
antiandrogen activity (in words) [2]: comparable or more potent antiandrogen activity than HF

Compound: COc1cc(/C=C/C(=O)/C=C(O)/C=C/c2ccc(O)c(OC)c2)ccc1O [Compound 1, Curcumin]
antagonistic activity against the AR (in words) [4]: inactive
antagonistic activity against the AR (in words) [5]: inactive
antiandrogen activity (in words) [2]: inactive; also recorded: not active

antagonistic activity against the AR (in words) [4]: less active than 4
antagonistic activity against the AR (in words) [5]: less active than 4
Compound: COc1ccc(C(=O)CC(=O)c2ccc(OC)c(OC)c2)cc1OC [Compound 39, 1,3-bis(3,4-dimethoxyphenyl)-1,3-propandione]
antiandrogen activity (in words) [2]: comparable or more potent antiandrogen activity than HF

Compound: COc1ccc(/C=C/C(=O)CC(O)/C=C/c2ccc(OC)c(OC)c2)cc1OC (centres unmarked) [LL-55]
anti-AR activity, wrAR/PC3 [3]: 0

anti-AR activity, LNCaP [1]: 0
Compound: COc1ccc(/C=C/C(=O)/C=C(O)/C=C/c2ccc(OC)c(OC)c2OC)cc1OC [LL-35]

anti-AR activity, LNCaP [1]: 0
Compound: COc1cc(OC)c(OC)cc1/C=C/C(O)=C/C(=O)/C=C/c1ccc(OC)c(OC)c1 [LL-36]

antagonistic activity against the AR (in words) [4]: significantly less active than 4
Compound: COc1cc(C=CC(=O)CC(=O)C=Cc2ccc(OC)c(OC)c2)ccc1O [Compound 9, Monomethylcurcumin]

anti-AR activity, wrAR/PC3 [3]: 0
Compound: CCOC(=O)/C=C/C(C(=O)/C=C/c1ccc(O)c(OC)c1)=C(O)\C=C\c1ccc(O)c(OC)c1 [LL-66]

Compound: COc1cc(/C=C/C(=O)/C=C/c2ccc(O)c(OC)c2)ccc1O [LL-10]
anti-AR activity, wrAR/PC3 [3]: 0

anti-AR activity, LNCaP [1]: 0
Compound: COc1ccc(/C=C/C(=O)/C=C(O)/C=C/c2ccc(OC)cc2F)c(F)c1 [HOJ-9]

anti-AR activity, LNCaP [1]: 0
Compound: COc1cc(/C=C/C(O)=C/C(=O)/C=C/c2ccc(OC)c(OC)c2)ccc1O [LL-17]
